Experimental findings from US20050014806A1, “Substituted isoxazoles and their use as antibiotics” (priority 2001, published 2005) are described below.

In series [1] the test system is HCT-116. Briefly: cells. The format is cell-based, human. The conditions noted are these: for viability at 100 µM: Homo sapiens, HCT-116, read-out: Cell viability percentage at 100 μM HCT-116. As to the method: (§1) Antitumoral activity of the compounds of the present invention was evaluated by determining in vitro cell growth inhibition of 2 human colon adenocarcinome cell lines. The SBR (Sulphorhodamine B) protein dye assay described by the NCI (National Cancer Institute) was used. Results of Table 2 illustrate the antiproliferative activity of some of the compounds of the present invention versus the one obtained with exisulind (sulindac sulfone).

For series [2], the system named is HT-29. Nature of the series: cells. The note with it: for viability at 100 µM: Homo sapiens, HT-29, read-out: Cell viability percentage at 100 μM HT-29. The format is cell-based, human. As to the method: as §1
In series [3] the test system is Streptococcus faecalis (BCM-010). Nature of the series: MIC by microdilution in microtiter plate, BCM-010. In kind it is cell-based. The conditions noted are these: incubation 24 h at 35° C.; for MIC: Enterococcus faecalis. As to the method: (§2) In order to assess the antimicrobial activity of the compounds of the present invention a method of microdilution in microtiter plate was used. The compounds were diluted in a nutritious medium and, subsequently, distributed by two-fold serial dilutions in 96 well plates. Then, plates were inoculated with a bacterial suspension. After incubation for 24 h at 35° C. the minimum inhibitory concentration (MIC) of the drug in […] was determined as the lowest concentration of compound which inhibits the growth of the bacterium. Results included in Table 1 illustrate the antimicrobial activity of some of the compounds of the present invention in comparison with thus obtained with two compounds (linezolid and eperezolid) of a known antimicrobial activity. The antimicrobial activity of the compound versus Streptococcus faecalis (BCM-010, strain designation as for SALVAT collection) Staphylococcus aureus (BCM-012, strain designation as for SALVAT collection) and Moraxella catarrhalis (BCM-015, strain designation as for SALVAT collection), respectively, is shown in the different columns.

The subject of series [4] is Staphylococcus aureus (BCM-012). Nature of the series: MIC by microdilution in microtiter plate, BCM-012. The format is cell-based. The note with it: incubation 24 h at 35° C. As to the method: as §2
The subject of series [5] is Moraxella catarrhalis (BCM-015). Nature of the series: MIC by microdilution in microtiter plate, BCM-015. In kind it is cell-based. The conditions noted are these: incubation 24 h at 35° C. On the procedure:
as §2

≈ marks a conversion by molar mass, not a printed value.

For the compound `Cc1cc(NCc2cc(-c3ccc(-n4ccc(/C=C/C#N)c4)c(F)c3)no2)sn1` [Example 37], the viability at 100 µM in series [1] was 18.9%; in series [2] it was less than 5%.

For the compound `Cc1cn(-c2ccc(-c3cc(CNc4cc(C)ns4)on3)cc2F)cn1` [Example 34, {3-[3-fluoro-4-(4-methylimidazolyl)phenyl]isoxazol-5-ylmethyl}-(3-methyl-isothiazol-5-yl)amine], the MIC in series [3] was found to be 1 µg/mL (≈ 2.71 µM); in series [4] it was 1 µg/mL (≈ 2.71 µM); in series [5], 4 µg/mL (≈ 10.8 µM).

For the compound `O=Cc1ccc(OCC(=O)N2CCN(c3c(F)cc(-c4cc(CNc5ccon5)on4)cc3F)CC2)cc1` [Example 26, 4-[2-(4-{2,6-difluoro-4-[5-(isoxazol-3-ylaminomethyl)isoxazol-3-yl]phenyl}piperazin-1-yl)-2-oxoethoxy]benzaldehyde], the MIC in series [3] came to 1 µg/mL (≈ 1.91 µM); in series [4], 0.5 µg/mL (≈ 0.955 µM); in series [5], 4 µg/mL (≈ 7.64 µM).

Take `N#C/C=C/c1cn(-c2ccc(-c3cc(CNc4ccon4)on3)cc2F)cn1` [Example 28]: the MIC came out at 1 µg/mL (≈ 2.66 µM) in series [3], 0.5 µg/mL (≈ 1.33 µM) in series [4] and 4 µg/mL (≈ 10.6 µM) in series [5]. In addition, the viability at 100 µM in series [1] was determined as 64.7%; in series [2], 71.2%.

Regarding `Cc1cn(-c2ccc(-c3cc(CNc4ccon4)on3)cc2F)cn1` [Example 38], the viability at 100 µM in series [1] was 48.6%; in series [2], 53.3%.

With `N#C/C=C/c1ccn(-c2ccc(-c3cc(CNc4ccon4)on3)cc2F)c1` [Example 36], the figures for the viability at 100 µM in series [1] and in series [2] were 77.1% and 14.3%, respectively.

`N#Cc1ccn(-c2ccc(-c3cc(CNc4ccon4)on3)cc2F)c1` [Example 25]: the MIC amounted to 0.5 µg/mL (≈ 1.43 µM) in series [3], 0.5 µg/mL (≈ 1.43 µM) in series [4] and 16 µg/mL (≈ 45.8 µM) in series [5].

In the case of “1-(2-fluoro-4-{5-[(3-methylisotiazol-5-ylamino)-methyl]isoxazol-3-yl}phenyl)-1H-imidazol-4-carboxaldehyde [Example 33]”, the “BCM-010 MIC” value in series [3] is 2 µg/mL. The “BCM-012 MIC” value in series [4] worked out at 0.5 µg/mL. For the same compound, the “BCM-015 MIC” value in series [5] turned out to be 4 µg/mL.

Regarding `OCc1cn(-c2ccc(-c3cc(CNc4ccon4)on3)cc2F)cn1` [Example 4], the figures for the MIC in series [3] and in series [4] were 4 µg/mL (≈ 11.3 µM) and 2 µg/mL (≈ 5.63 µM), respectively. Moreover, the viability at 100 µM in series [1] came out at 57.1%; in series [2] it was 66.1%.

With `O=C(c1cccnc1)N1CCN(c2ccc(-c3cc(CNc4ccon4)on3)cc2F)CC1` [Example 9, 3-[3-fluoro-4-(3-pyridylcarbonyl)piperazin-1-ylphenyl]-5-(isoxazol-3-ylaminomethyl)isoxazole], the MIC in series [3] is 4 µg/mL (≈ 8.92 µM); in series [4] it was 2 µg/mL (≈ 4.46 µM); in series [5], more than 16 µg/mL.

For `O/N=C\c1ccn(-c2ccc(-c3cc(CNc4ccon4)on3)cc2F)c1` [Example 24], the MIC in series [3] came out at 0.5 µg/mL (≈ 1.36 µM); in series [4] it was 0.5 µg/mL (≈ 1.36 µM); in series [5], 16 µg/mL (≈ 43.6 µM).

For the compound `Cc1ccccc1NCc1ccn(-c2ccc(-c3cc(CNc4ccon4)on3)cc2F)c1` [Example 30, (3-{3-fluoro-4-[3-(o-tolylaminomethyl)pyrrol-1-yl]phenyl}isoxazol-5-ylmethyl)isoxazol-3-ylamine], the MIC in series [3] came to 1 µg/mL (≈ 2.25 µM); in series [4], 0.5 µg/mL (≈ 1.13 µM); in series [5] it was 16 µg/mL (≈ 36.1 µM).

With `O=Cc1ccn(-c2ccc(-c3cc(CNc4ccon4)on3)cc2F)c1` [Example 5], the MIC in series [3] is 1 µg/mL (≈ 2.84 µM); in series [4], 1 µg/mL (≈ 2.84 µM); in series [5], 8 µg/mL (≈ 22.7 µM).

Turning to “sulindac sulfone [Exisulind, reference compound]”, the “Cell viability percentage at 100 μM HCT-116” value in series [1] came to 44.1%. The “Cell viability percentage at 100 μM HT-29” value in series [2] was 38.1%.

As to `CC(=O)NC[C@H]1CN(c2ccc(N3CCOCC3)c(F)c2)C(=O)O1` [Linezolid, linezolid, reference compound], the figures for the minimal inhibitory concentration (MIC) in series [3], in series [4] and in series [5] were 4 µg/mL (≈ 11.9 µM), 2 µg/mL (≈ 5.93 µM) and 4 µg/mL (≈ 11.9 µM), respectively.

What is called viability is a read-out of living cells in per cent, often relative to untreated cells. Usually MIC stands for the smallest concentration in the dilution series that meets the test's criterion for growth inhibition. Higher therefore signals weaker potency.
